# Measured values as given in US6376747B1, “Plant-derived map kinase kinase” (Her Majesty the Queen in right of Canada as represented by …, priority 1999, dated 2002).
# Read-outs that look alike come from different tables or passages of the source.
# Key:
# [1] = tested on: tMEK2^MUT-induced gene activation (PR1b1, PR3, Twi1, ER5); test: Effect of MAPK inhibitors on tMEK2^MUT-induced gene activation in tomato protoplasts; type: cell-based, Tomato (Lycopersicon esculentum cv Bonny Best); settings: for effect on all four genes previously activated by tMEK2^MUT: inhibitor at 1 μM in protoplast incubation buffer, genes PR1b1, PR3, Twi1, ER5 (FIG. 6); for effect on tMEK2^MUT-activated PR3 and ER5 genes / effect on tMEK2^MUT-activated PRlbl or Twi1 genes: 350 nM for SB 202190, 1 μM for SB 203580 in protoplast incubation buffer (FIG. 6)
# Experimental: Kinase inhibitors at the concentration of 1 μM for staurosporine, 350 nM for SB 202190 and 1 μM for PD 98059, SB 203580 and SB 202474 were included in the proteoplast incubation buffer.
# The protoplasts were resuspended in electroporation buffer containing 150 mM MgCl2 and 0.4 M mannitol at a density of 1×10^6 protoplasts/ml and co-electroporated with […] of pTZ19 carrying tMEK2 gene and pJD300 carrying luciferase gene in a total volume of 500 μl as described by Leckie (1994) with some modifications. Electroporation was performed at 200 volts and 100 μF (Gene Pulser II, Bio-Rad). Protoplasts were then allowed to recover on ice in the dark for 10 min followed by centrifugation at 500 g for 5 min. After removal of the supernatant, the protoplast pellet, with about 500 μl of buffer, was supplemented with another 500 μl protoplast incubation buffer. Protoplasts were incubated in the dark at 30° C. for 24 hr.
# (§1) Kinase inhibitors (CalBiochem, San Diego, Calif.) at the concentration of 1 μM for staurosporine, 350 nM for SB 202190 and 1 μM for PD 98059, SB 203580 and SB 202474, when applicable, were included in the protoplast incubation buffer.
# RT-PCR was as described above. The number of PCR cycles corresponded to the high end of the range in which a linear increase in products could be detected (generally 14-16 cycles were used). Reaction products were separated on 1.0% agarose gels. Southern blot analysis was used to estimate levels of specific amplified products. Equivalence of cDNA in different samples was verified using PCR reactions for actin. Primers were designed for PCR according to published sequences for tomato PR-lbl, chitinase, Twit, ER5 and actin (Tornero et al., 1997; Danhash et al., 1993; O'Donnell et al., 1998; Zegzoutti et al. 1997; Moniz de Sa and Drouin, 1996).
# To study divergence of the signal pathways downstream of tMEK2 the influence of […] expression in tomato protoplasts was examined in the presence of a broad protein kinase inhibitor (staurosporine) and inhibitors specific to the p38 class MAPK (SB 202190 or SB 203580). Staurosporine inhibited all four genes that were previously activated by tMEK2^MUT; whereas, inhibitors of p38 class MAPK inhibited the PR3 and ER5 genes but not PRlbl or Twi1. […] The results, shown in FIG. 6, are consistent with the divergence of signal pathway downstream of tMEK2. One of these pathways could include a p38 class MAPK.
# [2] = tested on: tomato leaf mesophyll protoplasts; test: Protoplast viability in the presence of kinase inhibitors; type: cell-based, Tomato (Lycopersicon esculentum cv Bonny Best); settings: 1 μM staurosporine, 350 nM SB 202190, 1 μM PD 98059, SB 203580 and SB 202474; data not shown
# Experimental: as §1
# myelin basic protein [3] = tested on: myelin basic protein
# myelin basic protein [4] = biological target: myelin basic protein; remark: listed apart in the source
# ER5 gene = test: Tomato protoplast transient expression, quantitative RT-PCR of wound-inducible gene ER5; type: cell-based, Tomato (Lycopersicon esculentum cv Bonny Best); settings: transient expression in tomato protoplasts, quantitative RT-PCR (FIG. 5b)
# Experimental: Tomato (Lycopersicon esculentum cv Bonny Best) were grown at 80% relative humidity in peat soil in growth cabinets programmed for 16 hr days at 25° C. and 8 hr nights at 22° C. Light intensity was controlled at 25 pE m-2 S-1 emitted from “cool white” fluorescent lamps (Philip Canada, Scarborough, Ontario). The youngest fully expanded leaves were surface sterilized for 5 min in 4% sodium hypochlorite and rinsed three times with sterile water. The lower epidermis was gently rubbed with Carborundum, rinsed with sterile water and leaf fragments of ca. 1 cm^2 were floated with exposed surface facing an enzyme solution containing 0.15% macerozyme R10 (Yakult Honsha Co., Japan), 0.3% Cellulase “Onozuka” Rio (Yakult Honsha Co., Japan), 0.4 M sucrose in K3 medium (Maliga et. al., 1973). After overnight incubation at 30° C., the enzyme-protoplast mixture was filtered through a 100 μm nylon sieve, centrifuged at 500 g for 5 min. and floated protoplasts were collected and washed twice with W5 medium (Maliga et.al., 1973). The protoplasts were kept on ice in W5 medium for 2 hr before transformation. […]
# (§2) RT-PCR was as described above. The number of PCR cycles corresponded to the high end of the range in which a linear increase in products could be detected (generally 14-16 cycles were used). […]
# [5] = tested on: PR1b1, PR3 (chitinase) and Twi1 genes; test: Tomato protoplast transient expression, quantitative RT-PCR of pathogenesis-related genes; type: cell-based, Tomato (Lycopersicon esculentum cv Bonny Best); settings: transient expression driven by tCUPΔ promoter after electroporation, 24 hr incubation, quantitative RT-PCR (FIG. 4)
# From the text: To examine the effects of tMEK2^WT and tMEK2^MUT on the activation of pathogenesis-related (PR) or other pathogen-inducible genes a tomato protoplast transient expression system was developed. Chimeric genes, tCUPΔ-tMEK2^WT-nos and tCUPΔ-tMEK2^MUT-nos, were constructed using the storing constitutive promoter, tCUPΔ, which was derived from the tCUP promoter as by modification of the mRNA leader sequence described above. After electroporation, transient expression of potential target genes was detected by quantitative RT-PCR. The genes analysed included PRlbl, which is activated by tomato mosaic virus (Tornero et al., 1997); PR3 (chitinase), which is activated during an incompatible C. fulvam-tomato interaction (Danhash et al., 1993); and Twi, which is a pathogen- and would-inducible gene recently identified in tomato (O'Donnell, et al., 1998).
# Tomato (Lycopersicon esculentum cv Bonny Best) were grown at 80% relative humidity in peat soil in growth cabinets programmed for 16 hr days at 25° C. and 8 hr nights at 22° C. Light intensity was controlled at 25 pE m-2 S-1 emitted from “cool white” fluorescent lamps (Philip Canada, Scarborough, Ontario). […]
# as §2
molecule,measurement,setting,value
CCc1nc(-c2ccc(OC)cc2)[nH]c1-c1ccncc1 [SB202474],effect on all four genes previously activated by tMEK2^MUT,[1],no effects
same,change of protoplast viability,[2],did not change
GST-tMEK2^MUT (recombinant glutathione-S-transferase fusion of tMEK2 with serine221 and threonine226 replaced with aspartic acid),"substrate phosphorylation (in vitro kinase assay, SDS-PAGE, autoradiography)",myelin basic protein [3],Both the wild type and mutant forms of the tMEK2 enzyme phosphorylated myelin basic protein (MPB) in vitro
C[S+]([O-])c1ccc(-c2nc(-c3ccc(F)cc3)c(-c3ccncc3)[nH]2)cc1 (centres unmarked) [SB 203580],effect on tMEK2^MUT-activated PR3 and ER5 genes,[1],inhibited
same,effect on tMEK2^MUT-activated PRlbl or Twi1 genes,[1],not
same,change of protoplast viability,[2],did not change
Oc1ccc(-c2nc(-c3ccc(F)cc3)c(-c3ccncc3)[nH]2)cc1 [SB 202190],effect on tMEK2^MUT-activated PR3 and ER5 genes,[1],inhibited
same,effect on tMEK2^MUT-activated PRlbl or Twi1 genes,[1],not
"CN[C@@H]1C[C@H]2O[C@@](C)([C@@H]1OC)n1c3ccccc3c3c4c(c5c6ccccc6n2c5c31)C(=O)NC4 [Staurosporine, staurosporine]",effect on all four genes previously activated by tMEK2^MUT,[1],inhibited
same,change of protoplast viability,[2],did not change
COc1cccc(-c2cc(=O)c3ccccc3o2)c1N [PD 98059],effect on all four genes previously activated by tMEK2^MUT,[1],no effects
GST-tMEK2^WT (recombinant glutathione-S-transferase fusion of wild type tomato cv. Bonny Best MAP kinase kinase tMEK2) (protein) MKKGSFAPNLKLSLPPPDEVALSKFLTESGTFKDGDLLVNRDGVRIVSQSEVAAPSVIQPSDNQLCLADFEAVKVIGKGNGGIVRLVQHKWTGQFFALKVIQMNIDESMRKHIAQELRINQSSQCPYVVICYQSFFDNGAISLILEYMDGGSLADFLKKVKTIPERFLAVICKQVLKGLWYLHHEKHIIHRDLKPSNLLINHRGDVKITDFGVSAVLASTSGLANTFVGTYNYMSPERISGGAYDYKSDIWSLGLVLLECATGHFPYKPPEGDEGWVNVYELMETIVDQPEPCAPPDQFSPQFCSFISACVQKHQKDRLSANDLMSHPFITMYDDQDIDLGSYFTSAGPPLATLTEL,"substrate phosphorylation (in vitro kinase assay, SDS-PAGE, autoradiography)",myelin basic protein [4],Both the wild type and mutant forms of the tMEK2 enzyme phosphorylated myelin basic protein (MPB) in vitro
"tMEK2^WT: wild type MAPKK gene tMEK2 isolated from tomato cv. Bonny Best, expressed from tCUPΔ promoter (protein, left off: a dimerising Fc or GST) MKKGSFAPNLKLSLPPPDEVALSKFLTESGTFKDGDLLVNRDGVRIVSQSEVAAPSVIQPSDNQLCLADFEAVKVIGKGNGGIVRLVQHKWTGQFFALKVIQMNIDESMRKHIAQELRINQSSQCPYVVICYQSFFDNGAISLILEYMDGGSLADFLKKVKTIPERFLAVICKQVLKGLWYLHHEKHIIHRDLKPSNLLINHRGDVKITDFGVSAVLASTSGLANTFVGTYNYMSPERISGGAYDYKSDIWSLGLVLLECATGHFPYKPPEGDEGWVNVYELMETIVDQPEPCAPPDQFSPQFCSFISACVQKHQKDRLSANDLMSHPFITMYDDQDIDLGSYFTSAGPPLATLTEL",activation of ER5 gene,ER5 gene,did not
same,"activation of tomato PRlbl, chitinase and Twil genes",[5],no effect
